Results taken from US20020192776A1, “Heliothis glutamate receptor” (Aventis Cropscience SA, priority 2000, published 2002).

Test system: lepidopteran glutamate-gated chloride channel
Assay: two-electrode voltage clamp recordings of Xenopus oocytes injected with HEGE2 mRNA
Assay type: cell-based, Heliothis virescens
Settings: held at -80 mV
Procedure: Messenger RNA was produced from the cDNA template of HEGE2 by in vitro transcription with the Ambion mMESSAGE mMACHINE IN VITRO TRANSCRIPTION KIT (Ambion, Inc.). The mRNA was injected into oocytes by the following procedure.
Frogs were anesthetized in a 2 gram/liter solution of 3-amino benzoic acid ethyl ester for thirty minutes, after which oocytes were surgically removed from the abdominal cavity. Follicles were digested by collagenase treatment under sterile conditions by standard methods. Oocytes were injected with 50 nl of 1 μg/μl mRNA by glass electrodes.
After a 24 hr incubation, two-electrode voltage clamp recordings were made. Recordings were made using a Dagan, TEV200 voltage clamp interfaced with a MacLab4 data acquisition system running the MacLab Chart data acquisition/analysis software. Oocytes were positioned under a dissection scope under constant perfusion with frog saline (96 mM of NaCl, 2 mM of KCl, 1 mM of MgCl2, 1.8 mM of CaCl2 and 10 mM of HEPES, pH 7.5) using a Razel syringe perfusion pump. Model A99-FY at 93.9 cc/hr. Glass electrodes (A-M Systems. Inc. 1.5 mm×0.86 mm) were filled with 3 M KCl and resistance (a function of the diameter of the channel opening) was measured to be between 0.7 and 1.5 mega ohms. Both electrodes were inserted into the oocyte at opposite sides, the resting potential was recorded and the voltage clamp turned on. […]

Molecule	activation of current in oocytes (One micromolar Ivermectin phosphate, Xenopus oocytes expressing HEGE2)	activation of membrane (chloride) current (100 uM glutamate, Xenopus oocytes injected with 50 ng of HEGE2 mRNA, FIG. 1)
Ivermectin phosphate	slowly and irreversibly activated current	–
N[C@@H](CCC(=O)O)C(=O)O [glutamate]	–	activate a membrane current
